The values that follow come from patent US20100092453A1, “Method of producing porous microparticles” (priority 2006, published 2010).

Some results are limits rather than exact numbers.

Data set [1] in a line: Density measurements (bulk, tap, Carr's compressibility index). It counts as physicochemical. On the procedure:
Dublin 12) with a funnel. The weight of the powder required to fill the 1 ml graduated syringe was recorded to calculate bρ. […] The resultant volume was recorded [NT]ρ. Each measurement was performed in triplicate. The Carr's compressibility index of some of the systems was calculated from the following equation: compressibility index(%)=[(tap density-bulk density)/tap density]×100 Lower values of the index are desirable as they indicate better flow.

The nature of data set [2]: Suspension sedimentation analysis (water/Tween 80). The class given is physicochemical. Conditions: water/Tween 80 (96:4 v/v). The method, then:
Sedimentation analysis was carried out on suspensions of bendroflumethiazide (BFMT) and sulfadimidine. 25 ml suspensions were prepared by mixing water and Tween 80 (96:4 v/v) with 150 mg of the drug powder. The suspensions were transferred to 25 ml graduated cylinders, mixed thoroughly and their sedimentation observed over time.

The nature of data set [3]: In vitro dry powder inhaler deposition, Andersen Cascade Impactor. On the procedure: The pulmonary deposition of the dry powders was investigated using an Andersen Cascade Impactor (ACI) (1 ACFM Eight Stage Non-Viable Cascade Impactor, Graseby Andersen, Atlanta, Ga.). […] Size 3 hard gelatin capsules (Farillon Ltd., U.K.) were filled to approximately 50% with the dry powder (approximately 25 mg of powder). […] The amount of powder deposited on each stage of the impactor was determined by weight, UV analysis or HPLC analysis.

Data set [4] is described as follows: Suspension stability of MDI systems in HFA-134a. It counts as physicochemical. The following applies: BFMT in HFA-134a. On the procedure: In order to prepare metered dose inhalers, 20 mg of powder was weighed into glass vials. Afterwards a 25 μl metering valve (Bespak, UK) was crimped onto the glass vial and the liquid propellant HFA-134a was added through the nozzle. The final weight of each MDI (without the container and metering valve) was 10 g. The last two steps were performed using a Pamasol P 2016 aerosol filling station (Pamasol Willi Mader AG, Pfäffikon, Switzerland). Prepared MDIs were homogenised in a Bransonic 220 ultrasonic bath (UK) for 1 min.

Take `Cc1cc(C)nc(NS(=O)(=O)c2ccc(N)cc2)n1` [Micronised sulfadimidine, sulfadimidine]: the compressibility index in data set [1] (Carr's index from tap and bulk density) worked out at 50.3%. For the same compound, the “time to completely settle in suspension” value in data set [2] is not above 30 min. Also, in data set [3], the “mass median aerodynamic diameter (MMAD)” value was determined as 14.4±4.9 μm.

Consider `NS(=O)(=O)c1cc2c(cc1C(F)(F)F)NC(Cc1ccccc1)NS2(=O)=O` (stereo not shown) [raw BFMT, bendroflumethiazide], for which, in data set [1], the bulk density came to 0.29 g/mL and the tap density was 0.58 g/mL. Moreover, the “sedimentation of powder particles in suspension (observation)” value in data set [2] (observed up to four hours) is “completely settle in a matter of seconds”. In data set [4] (4 hours), the “sedimentation in MDI after 4 hours” value is “noticeable sedimentation”. Moreover, the “sedimentation in MDI after seven days” value in data set [4] (7 days) is “completely settled”.

In data set [1], `O=C(O)c1cc(=O)c2c(OCC(O)COc3cccc4oc(C(=O)O)cc(=O)c34)cccc2o1` [sodium cromoglycate] yielded a bulk density of 0.341 ± 0.024 g/mL and a tap density of 0.661 ± 0.023 g/mL.
